Literature values in patent US6406894B1, “Process for preparing polyvalent and physiologically degradable carbohydrate-containing polymers by enzymatic glycosylation reactions and the use thereof for preparing carbohydrate building blocks” (Glycorex AB, priority 1992, dated 2002).

Target: T1, E-selectin-IgG (Homo sapiens, UniProt P16581)
T1 construct: soluble fusion proteins formed between the extracytoplasmic domain of E- or P-selectin together with the constant region of a human immunoglobulin of subclass IgG1; made in house; host or cells: COS-7 cells, transient transfection with DEAE-dextran; the culture supernatant was used and captured on plates coated with anti-human IgG
Settings: comparative value, c.f. EPA 93 119 098.7; read-out: Comparative value: IC50 of HL60 cell adhesion to E-selectin-IgG

T1 sequence (P16581 with tags, fused parts or gaps): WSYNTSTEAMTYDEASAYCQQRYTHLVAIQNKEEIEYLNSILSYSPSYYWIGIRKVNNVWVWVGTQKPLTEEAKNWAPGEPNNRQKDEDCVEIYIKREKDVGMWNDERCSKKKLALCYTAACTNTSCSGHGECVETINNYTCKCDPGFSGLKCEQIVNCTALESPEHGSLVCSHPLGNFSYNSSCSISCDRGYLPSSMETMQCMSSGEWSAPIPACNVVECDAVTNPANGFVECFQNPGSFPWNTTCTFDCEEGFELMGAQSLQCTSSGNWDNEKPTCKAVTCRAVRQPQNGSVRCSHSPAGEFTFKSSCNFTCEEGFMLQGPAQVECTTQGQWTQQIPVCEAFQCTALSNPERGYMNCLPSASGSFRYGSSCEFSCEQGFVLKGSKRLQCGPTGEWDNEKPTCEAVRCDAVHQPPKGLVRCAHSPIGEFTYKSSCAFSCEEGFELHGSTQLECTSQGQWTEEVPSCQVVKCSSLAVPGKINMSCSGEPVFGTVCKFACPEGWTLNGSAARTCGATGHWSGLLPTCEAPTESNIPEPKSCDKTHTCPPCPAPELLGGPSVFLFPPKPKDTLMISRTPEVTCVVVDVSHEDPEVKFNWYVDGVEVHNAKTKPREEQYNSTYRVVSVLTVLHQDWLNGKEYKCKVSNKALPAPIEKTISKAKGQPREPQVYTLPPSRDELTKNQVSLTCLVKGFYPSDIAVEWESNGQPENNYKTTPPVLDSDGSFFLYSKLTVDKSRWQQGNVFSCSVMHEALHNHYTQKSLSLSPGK

Q: For `CC(=O)NC1C(O)CC(OC2C(O)C(CO)OC(OC3C(CO)OC(OCCCCCCN)C(NC(C)=O)C3OC3OC(C)C(O)C(O)C3O)C2O)(C(=O)O)OC1C(O)C(O)CO` (stereo not shown) [Sialyl-Le^x—O(CH2)6NH2], which IC50 is on record?
A: 1 mM
